Measured values taken from ChEMBL document CHEMBL4402595, “Discovery of Orally Bioavailable Chromone Derivatives as Potent and Selective BRD4 Inhibitors: Scaffold Hopping, Optimization, and Pharmacological Evaluation” (J Med Chem, 2020).

Key:
[1] = biological target: T1, Bromodomain-containing protein 4 (Homo sapiens, UniProt O60885); experiment: Inhibition of BRD4 in poly(I:C)-stimulated human SAECs TLR3-inducible CIG5 gene expression at 10 uM pre-incubated for 24 hrs before poly(I:C) stimulation for 4 hrs by qRT-PCR analysis relative to control
[2] = biological target: T1, Bromodomain-containing protein 4; experiment: Inhibition of BRD4 in poly(I:C)-stimulated human SAECs TLR3-inducible IL-6 gene expression at 10 uM pre-incubated for 24 hrs before poly(I:C) stimulation for 4 hrs by qRT-PCR analysis relative to control
[3] = biological target: T1, Bromodomain-containing protein 4; experiment: Inhibition of BRD4 in poly(I:C)-stimulated human SAECs TLR3-inducible CIG5 gene expression pre-incubated for 24 hrs before poly(I:C) stimulation for 4 hrs by qRT-PCR analysis
[4] = biological target: T1, Bromodomain-containing protein 4; experiment: Inhibition of BRD4 in poly(I:C)-stimulated human SAECs TLR3-inducible IL-6 gene expression pre-incubated for 24 hrs before poly(I:C) stimulation for 4 hrs by qRT-PCR analysis
[5] = biological target: T1, Bromodomain-containing protein 4; experiment: Binding affinity to recombinant BRD4 BD2 (unknown origin) incubated for 1 hr by TR-FRET assay
[6] = biological target: Bromodomain-containing protein 2 (Homo sapiens, UniProt P25440); experiment: Binding affinity to recombinant BRD2 BD2 (unknown origin) incubated for 1 hr by TR-FRET assay
Bromodomain-containing protein 2, sequence (P25440 whole entry): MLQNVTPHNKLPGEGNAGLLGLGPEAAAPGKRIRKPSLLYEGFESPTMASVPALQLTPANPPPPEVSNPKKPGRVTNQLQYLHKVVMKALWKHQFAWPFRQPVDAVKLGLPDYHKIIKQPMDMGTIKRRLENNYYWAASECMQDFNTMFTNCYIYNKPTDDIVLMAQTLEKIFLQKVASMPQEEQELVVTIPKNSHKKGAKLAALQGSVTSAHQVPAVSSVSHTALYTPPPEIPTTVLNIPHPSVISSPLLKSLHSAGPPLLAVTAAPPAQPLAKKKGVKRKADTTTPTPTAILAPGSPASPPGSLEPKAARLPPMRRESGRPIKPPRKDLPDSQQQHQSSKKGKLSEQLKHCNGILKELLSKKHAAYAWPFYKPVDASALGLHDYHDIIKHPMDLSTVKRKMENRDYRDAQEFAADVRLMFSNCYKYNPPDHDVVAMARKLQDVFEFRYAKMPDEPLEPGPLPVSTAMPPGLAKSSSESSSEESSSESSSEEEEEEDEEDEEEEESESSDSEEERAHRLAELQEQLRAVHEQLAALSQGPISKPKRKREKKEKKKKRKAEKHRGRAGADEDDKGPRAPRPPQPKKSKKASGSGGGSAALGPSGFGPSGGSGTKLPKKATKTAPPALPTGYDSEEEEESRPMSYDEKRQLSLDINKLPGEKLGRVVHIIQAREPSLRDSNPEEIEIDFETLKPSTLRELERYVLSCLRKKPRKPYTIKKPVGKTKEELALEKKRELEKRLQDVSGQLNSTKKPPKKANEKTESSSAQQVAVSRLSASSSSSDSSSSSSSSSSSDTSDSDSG

Row | inhibition [1] [%] | inhibition [2] [%] | SMILES | also measured
1 | 84 | 65 | COc1cc(OC)c2c(=O)[nH]c(-c3cc(C)c(OCCO)c(C)c3)nc2c1 | 
2 |  | 45 | COc1cc(OC)c2c(=O)[nH]c(-c3ccc(C(F)(F)F)c(C)c3)nc2c1 | 
3 | 51 | 15 | Cc1cc(-c2nc3cc(Br)ccc3c(=O)[nH]2)cc(C)c1O | 
4 | -4.5 | 62 | Cc1cc(-c2nc3ccc(F)cc3c(=O)[nH]2)cc(C)c1O | 
5 | 37 | 53 | Cc1cc(-c2nc3ccc(Cl)cc3c(=O)[nH]2)cc(C)c1O | 
6 | 83 | 80 | COc1cc(OC)c2c(=O)[nH]c(-c3cc(C)c(OC[C@@H](O)CN4CCN(C)CC4)c(C)c3)nc2c1 | IC50 [3]: 2600 nM; IC50 [4]: 3500 nM
7 | 87 | 83 | COc1cc(OC)c2c(=O)[nH]c(-c3cc(C)c(OC[C@@H]4CO4)c(C)c3)nc2c1 | 
8 | 81 | 63 | COc1cc(OC)c2c(=O)[nH]c(-c3ccc(O)cc3)nc2c1 | 
9 | 42 | 66 | COc1cc(OC)c2c(=O)[nH]c(-c3ccc(O)cc3Cl)nc2c1 | 
10 | 71 |  | Cc1cc(-c2nc3cc(-c4ccn(C)n4)ccc3c(=O)[nH]2)cc(C)c1O | 
11 | 45 |  | COc1cc(OC)c2c(=O)[nH]c(-c3ccc(C(F)(F)F)cc3)nc2c1 | 
12 |  | 81 | Cc1cc(-c2nc3ccccc3c(=O)[nH]2)cc(C)c1O | 
13 | 43 | 25 | Cc1cc(-c2nc3ccc(Br)cc3c(=O)[nH]2)cc(C)c1O | 
14 | 61 | 59 | COc1cc(-c2nc3ccccc3c(=O)[nH]2)cc(OC)c1O | 
15 | 33 | 62 | Cc1cc(-c2nc3cccc(F)c3c(=O)[nH]2)cc(C)c1O | 
16 |  | 75 | COc1cc(OC)c2c(=O)[nH]c(-c3cc(C)c(O)c(C)c3)nc2c1 | 

Second part, the compound before the results:

Row | SMILES | inhibition [1] [%] | inhibition [2] [%] | also measured
17 | COc1cc(OC)c2c(=O)cc(-c3cc(C)c(OC[C@H](O)CN4CCCC4)c(C)c3)oc2c1 | 92 | 99 | IC50 [3]: 1480 nM; IC50 [4]: 970 nM
18 | COc1cc(OC)c2c(=O)cc(-c3cc(C)c(OCCO)c(C)c3)oc2c1 | 97 | 98 | IC50 [3]: 2600 nM; IC50 [4]: 2800 nM
19 | C=CCOc1c(C)cc(-c2cc(=O)c3c(OC)cc(OC)cc3o2)cc1C | 83 |  | 
20 | COc1cc(OC)c2c(=O)cc(-c3cc(C)c(OC[C@H](O)CN4CCOCC4)c(C)c3)oc2c1 | 42 | 82 | 
21 | COc1cc(OC)c2c(=O)cc(-c3cc(C)c(OC[C@H](O)CN4CCC(F)(F)CC4)c(C)c3)oc2c1 | 63 | 88 | 
22 | Cc1cc(-c2nc3cc([N+](=O)[O-])ccc3c(=O)n2C)cc(C)c1O |  | 86 | 
23 | COc1cc(OC)c2c(=O)cc(-c3cc(C)c(OC[C@@H](F)CN4CCCCC4)c(C)c3)oc2c1 | 85 | 90 | 
24 | Cc1cc(-c2nc3ccccc3c(=O)n2C)cc(C)c1O | 18 | 55 | 
25 | COc1cc(OC)c2c(=O)cc(-c3cc(C)c(OC[C@@H](O)CN4CCCCC4)c(C)c3)oc2c1 | 100 | 100 | IC50 [3]: 580 nM; IC50 [4]: 540 nM; IC50 [5]: 93 nM; IC50 [6]: 1200 nM
26 | COc1cc(OC)c2c(=O)cc(-c3cc(C)c(OC[C@H](O)CN(C)C)c(C)c3)oc2c1 |  | 82 | 
27 | O=c1[nH]c(-c2cc(F)c(O)cc2F)nc2ccccc12 | 2.2 | 59 | 
